Literature values as cited in patent US6635288B2, “Composition for suppressing cellular fibrousing and method for preparing an extract from loquat seeds” (Kochi Medical School, priority 2000, dated 2003).

Test system: rats
Details: Carter et al., Biochem. Pharmacol. 29, 301 (1980)

For `N#C[C@H](O[C@@H]1O[C@H](CO[C@@H]2O[C@H](CO)[C@@H](O)[C@H](O)[C@H]2O)[C@@H](O)[C@H](O)[C@H]1O)c1ccccc1` [amygdalin], which lethal dose is on record?
The lethal dose was 600 mg.
